Experimental data: ChEMBL document CHEMBL1201862, “PubChem BioAssay data set” (2004)
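Briefly, cells in 96-well plates were exposed to five compound concentrations for 48 h, and endpoints were estimated by linear interpolation. Here, GI50 denotes the concentration required for 50% inhibition of growth.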 Activity calls are given as the source filed them. No stated cut-off is given here; in the data, active = GI50 up to about 1.1 µM and inactive = higher.

How the values were obtained:
Assay in all cases: DTP human tumour cell line panel, 48 h
[1] = system: SK-MEL-5
[2] = system: A498
[3] = system: SW-620
[4] = system: SF-268
[5] = system: IGROV-1
[6] = system: K562
[7] = system: NCI-H23
[8] = system: CCRF-CEM
[9] = system: MCF7
[10] = system: HOP-62
[11] = system: HCT-116
[12] = system: U-251
[13] = system: Malme-3M
[14] = system: M14
[15] = system: OVCAR-8
[16] = system: NCI-H226
[17] = system: UACC-62
[18] = system: RXF 393
[19] = system: A549
[20] = system: HCC 2998
[21] = system: T47D
[22] = system: SK-MEL-28
[23] = system: BT-549
[24] = system: SNB-75
[25] = system: HCT-15
[26] = system: PC-3
[27] = system: MDA-MB-435
[28] = system: HT-29
[29] = system: MOLT-4
[30] = system: SF-539
[31] = system: SK-MEL-2
[32] = system: MDA-N
[33] = system: OVCAR-5
[34] = system: COLO 205
[35] = system: SK-OV-3
[36] = system: HOP-92
[37] = system: UO-31
[38] = system: OVCAR-4
[39] = system: Hs-578T
[40] = system: RPMI-8226
[41] = system: ACHN
[42] = system: SF-295
[43] = system: SN12C
[44] = system: NCI/ADR-RES
[45] = system: TK-10
[46] = system: UACC-257
[47] = system: KM12
[48] = system: DU-145
[49] = system: SR
[50] = system: MDA-MB-231
[51] = system: CAKI-1
[52] = system: NCI-H522
[53] = system: 786-0
[54] = system: NCI-H460
[55] = system: OVCAR-3
[56] = system: LOX IMVI
[57] = system: EKVX
[58] = system: SNB-19

SMILES: CN(C)c1ccc(C2CC(c3ccc4ccccc4c3O)=NN2)cc1 (centres undefined)
- GI50 [1]: 36 µM (inactive)
- GI50 [2]: 22.4 µM (inactive)
- GI50 [3]: 32.9 µM (inactive)
- GI50 [4]: 32.5 µM (inactive)
- GI50 [5]: 24.9 µM (inactive)
- GI50 [6]: 25.5 µM (inactive)
- GI50 [7]: 34.5 µM (inactive)
- GI50 [8]: 17.9 µM (inactive)
- GI50 [9]: 27.7 µM (inactive)
- GI50 [10]: 31 µM (inactive)
- GI50 [11]: 31.7 µM (inactive)
- GI50 [12]: 33.6 µM (inactive)
- GI50 [13]: 51.1 µM (inactive)
- GI50 [14]: 31.8 µM (inactive)
- GI50 [15]: 32.4 µM (inactive)
- GI50 [16]: 41.5 µM (inactive)
- GI50 [17]: 36.2 µM (inactive)
- GI50 [18]: 36.1 µM (inactive)
- GI50 [19]: 31 µM (inactive)
- GI50 [20]: 69.7 µM (inactive)
- GI50 [21]: 38.8 µM (inactive)
- GI50 [22]: 63.1 µM (inactive)
- GI50 [23]: 39.1 µM (inactive)
- GI50 [24]: 37 µM (inactive)
- GI50 [25]: 44 µM
- GI50 [26]: 32 µM (inactive)
- GI50 [27]: 30.4 µM (inactive)
- GI50 [28]: 34.4 µM (inactive)
- GI50 [29]: 20.3 µM (inactive)
- GI50 [30]: 24.5 µM (inactive)
- GI50 [31]: 35.7 µM (inactive)
- GI50 [32]: 26.5 µM (inactive)
- GI50 [33]: 80.7 µM (inactive)
- GI50 [34]: 19.5 µM (inactive)
- GI50 [35]: 48.5 µM (inactive)
- GI50 [36]: 29.4 µM (inactive)
- GI50 [37]: 30.1 µM (inactive)
- GI50 [38]: 94.4 µM (inactive)
- GI50 [39]: 37.4 µM (inactive)
- GI50 [40]: 29.6 µM (inactive)
- GI50 [41]: 38.4 µM (inactive)
- GI50 [42]: 31.6 µM (inactive)
- GI50 [43]: 33.2 µM (inactive)
- GI50 [44]: 30.3 µM (inactive)
- GI50 [45]: 56.4 µM (inactive)
- GI50 [46]: 38.8 µM (inactive)
- GI50 [47]: 39.5 µM (inactive)
- GI50 [48]: 50.4 µM (inactive)
- GI50 [49]: 14.1 µM (inactive)
- GI50 [50]: 50 µM (inactive)
- GI50 [51]: 40.6 µM (inactive)
- GI50 [52]: 22.2 µM (inactive)
- GI50 [53]: 21.9 µM (inactive)
- GI50 [54]: 32.2 µM (inactive)
- GI50 [55]: 18 µM (inactive)

SMILES: CN(C)c1cccc(-c2cc(=S)c3cc4c(cc3[nH]2)OCO4)c1
- GI50 [1]: 3.4 µM (inactive)
- GI50 [2]: > 100 µM (inactive)
- GI50 [3]: 5.15 µM (inactive)
- GI50 [4]: > 61.2 µM (inactive)
- GI50 [5]: 6.38 µM (inactive)
- GI50 [7]: 5.62 µM (inactive)
- GI50 [8]: 4.26 µM (inactive)
- GI50 [9]: 4.94 µM (inactive)
- GI50 [10]: > 27.5 µM (inactive)
- GI50 [11]: 5.74 µM (inactive)
- GI50 [12]: > 20.7 µM (inactive)
- GI50 [13]: 8.28 µM (inactive)
- GI50 [14]: 5.28 µM (inactive)
- GI50 [56]: 7.73 µM (inactive)
- GI50 [15]: 6.43 µM (inactive)
- GI50 [16]: 5.7 µM (inactive)
- GI50 [17]: 6.27 µM (inactive)
- GI50 [18]: 4.83 µM (inactive)
- GI50 [19]: 4.85 µM (inactive)
- GI50 [20]: 7.89 µM (inactive)
- GI50 [21]: 6.87 µM (inactive)
- GI50 [22]: > 100 µM (inactive)
- GI50 [23]: > 100 µM (inactive)
- GI50 [25]: 4.74 µM
- GI50 [26]: 3.61 µM (inactive)
- GI50 [27]: 1.76 µM (inactive)
- GI50 [28]: 6.24 µM (inactive)
- GI50 [29]: 15.8 µM (inactive)
- GI50 [30]: 4.27 µM (inactive)
- GI50 [31]: 24.4 µM (inactive)
- GI50 [32]: 2.83 µM (inactive)
- GI50 [33]: > 64.9 µM (inactive)
- GI50 [34]: 14.8 µM (inactive)
- GI50 [35]: 6.14 µM (inactive)
- GI50 [36]: > 100 µM (inactive)
- GI50 [37]: 18.4 µM (inactive)
- GI50 [57]: 7.62 µM (inactive)
- GI50 [38]: > 100 µM (inactive)
- GI50 [39]: 4.28 µM (inactive)
- GI50 [40]: > 21.1 µM (inactive)
- GI50 [41]: 7.93 µM (inactive)
- GI50 [42]: 4.6 µM (inactive)
- GI50 [43]: 16.4 µM (inactive)
- GI50 [44]: 3.94 µM (inactive)
- GI50 [45]: > 77.4 µM (inactive)
- GI50 [46]: 9.25 µM (inactive)
- GI50 [47]: 5.13 µM (inactive)
- GI50 [48]: 4.74 µM (inactive)
- GI50 [49]: 4.95 µM (inactive)
- GI50 [50]: 31.9 µM (inactive)
- GI50 [51]: 11.1 µM (inactive)
- GI50 [52]: 12.6 µM (inactive)
- GI50 [53]: 6.07 µM (inactive)
- GI50 [54]: 4.59 µM (inactive)
- GI50 [55]: 8.67 µM (inactive)
- GI50 [58]: 4.7 µM (inactive)

SMILES: Cc1nc2c(=O)[nH]c(=O)nc-2n(CCO)c1C
- GI50 [1]: > 100 µM (inactive)
- GI50 [2]: > 100 µM (inactive)
- GI50 [3]: > 100 µM (inactive)
- GI50 [4]: > 100 µM (inactive)
- GI50 [5]: > 100 µM (inactive)
- GI50 [6]: > 100 µM (inactive)
- GI50 [7]: > 100 µM (inactive)
- GI50 [8]: > 100 µM (inactive)
- GI50 [9]: > 100 µM (inactive)
- GI50 [10]: > 100 µM (inactive)
- GI50 [11]: > 100 µM (inactive)
- GI50 [12]: > 100 µM (inactive)
- GI50 [13]: > 100 µM (inactive)
- GI50 [14]: > 100 µM (inactive)
- GI50 [56]: > 100 µM (inactive)
- GI50 [15]: > 100 µM (inactive)
- GI50 [16]: > 100 µM (inactive)
- GI50 [17]: > 100 µM (inactive)
- GI50 [18]: > 100 µM (inactive)
- GI50 [19]: > 100 µM (inactive)
- GI50 [20]: > 100 µM (inactive)
- GI50 [21]: > 100 µM (inactive)
- GI50 [22]: > 100 µM (inactive)
- GI50 [23]: > 100 µM (inactive)
- GI50 [24]: 82 µM (inactive)
- GI50 [25]: > 100 µM
- GI50 [26]: > 100 µM (inactive)
- GI50 [27]: > 100 µM (inactive)
- GI50 [28]: > 100 µM (inactive)
- GI50 [29]: > 100 µM (inactive)
- GI50 [30]: > 100 µM (inactive)
- GI50 [31]: > 100 µM (inactive)
- GI50 [32]: > 100 µM (inactive)
- GI50 [33]: > 100 µM (inactive)
- GI50 [34]: > 100 µM (inactive)
- GI50 [35]: > 100 µM (inactive)
- GI50 [36]: > 100 µM (inactive)
- GI50 [37]: > 100 µM (inactive)
- GI50 [57]: > 100 µM (inactive)
- GI50 [38]: > 100 µM (inactive)
- GI50 [39]: > 100 µM (inactive)
- GI50 [40]: > 100 µM (inactive)
- GI50 [41]: > 100 µM (inactive)
- GI50 [42]: > 100 µM (inactive)
- GI50 [43]: > 100 µM (inactive)
- GI50 [44]: > 100 µM (inactive)
- GI50 [45]: > 100 µM (inactive)
- GI50 [46]: > 100 µM (inactive)
- GI50 [47]: > 100 µM (inactive)
- GI50 [48]: > 100 µM (inactive)
- GI50 [49]: > 100 µM (inactive)
- GI50 [50]: > 100 µM (inactive)
- GI50 [51]: > 100 µM (inactive)
- GI50 [52]: > 100 µM (inactive)
- GI50 [53]: > 100 µM (inactive)
- GI50 [54]: > 100 µM (inactive)
- GI50 [55]: > 100 µM (inactive)
- GI50 [58]: > 100 µM (inactive)
